# Assay results published in PubChem BioAssay (NCI).
#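 Briefly, cells in 96-well plates were exposed to five compound concentrations for 48 h, and endpoints were estimated by linear interpolation. At the GI50, growth is halved. Definition used: TGI = concentration required for complete inhibition of growth.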
# How the values were obtained:
# Test in all cases: NCI tumour cell line growth inhibition, 48 h
# U251 CNS = test system: U251 CNS
# MOLT-4 leukemia = test system: MOLT-4 leukemia
# SK-OV-3 ovarian = test system: SK-OV-3 ovarian
# A498 renal = test system: A498 renal
# RXF 393 renal = test system: RXF 393 renal
# IGROV1 ovarian = test system: IGROV1 ovarian
# SW-620 colon = test system: SW-620 colon
# MALME-3M melanoma = test system: MALME-3M melanoma
# OVCAR-5 ovarian = test system: OVCAR-5 ovarian
# KM12 colon = test system: KM12 colon
# NCI-H226 lung = test system: NCI-H226 lung
# 786-0 renal = test system: 786-0 renal
# SN12C renal = test system: SN12C renal
# T-47D breast = test system: T-47D breast
# TK-10 renal = test system: TK-10 renal
# PC-3 prostate = test system: PC-3 prostate
# SF-539 CNS = test system: SF-539 CNS
# SF-268 CNS = test system: SF-268 CNS
# OVCAR-4 ovarian = test system: OVCAR-4 ovarian
# RPMI-8226 leukemia = test system: RPMI-8226 leukemia
# M14 melanoma = test system: M14 melanoma
# SK-MEL-28 melanoma = test system: SK-MEL-28 melanoma
# CCRF-CEM leukemia = test system: CCRF-CEM leukemia
# LOX IMVI melanoma = test system: LOX IMVI melanoma
# HS 578T breast = test system: HS 578T breast
# SR leukemia = test system: SR leukemia
# SK-MEL-2 melanoma = test system: SK-MEL-2 melanoma
# EKVX NSCLC = test system: EKVX NSCLC
smiles,measurement,setting,value
Nc1ccccc1NC(=O)c1ccc(CN2CCC/C(=C\c3cccc(Cl)c3)C2=O)cc1,TGI,U251 CNS,13200 nM
same,GI50,MOLT-4 leukemia,474 nM
same,TGI,MOLT-4 leukemia,> 100000 nM
same,GI50,SK-OV-3 ovarian,626 nM
same,TGI,SK-OV-3 ovarian,26400 nM
same,GI50,A498 renal,441 nM
same,TGI,A498 renal,3660 nM
same,GI50,RXF 393 renal,277 nM
same,TGI,RXF 393 renal,5230 nM
same,GI50,IGROV1 ovarian,337 nM
same,TGI,IGROV1 ovarian,13600 nM
same,GI50,SW-620 colon,53.9 nM
same,TGI,SW-620 colon,> 100000 nM
same,GI50,MALME-3M melanoma,1590 nM
same,TGI,MALME-3M melanoma,16400 nM
same,GI50,OVCAR-5 ovarian,450 nM
same,TGI,OVCAR-5 ovarian,> 100000 nM
same,GI50,KM12 colon,378 nM
same,TGI,KM12 colon,13400 nM
same,GI50,NCI-H226 lung,2010 nM
same,TGI,NCI-H226 lung,7060 nM
same,GI50,786-0 renal,366 nM
same,TGI,786-0 renal,2170 nM
same,GI50,SN12C renal,708 nM
same,TGI,SN12C renal,85300 nM
same,GI50,T-47D breast,3340 nM
same,TGI,T-47D breast,56600 nM
same,GI50,TK-10 renal,1110 nM
same,TGI,TK-10 renal,5880 nM
same,GI50,PC-3 prostate,463 nM
same,TGI,PC-3 prostate,14100 nM
same,GI50,SF-539 CNS,695 nM
same,TGI,SF-539 CNS,5330 nM
same,GI50,SF-268 CNS,1410 nM
same,TGI,SF-268 CNS,6740 nM
same,GI50,OVCAR-4 ovarian,1490 nM
same,TGI,OVCAR-4 ovarian,> 100000 nM
same,GI50,RPMI-8226 leukemia,921 nM
same,TGI,RPMI-8226 leukemia,4580 nM
same,GI50,M14 melanoma,52.1 nM
same,TGI,M14 melanoma,13700 nM
same,GI50,SK-MEL-28 melanoma,1160 nM
same,TGI,SK-MEL-28 melanoma,58900 nM
same,GI50,CCRF-CEM leukemia,866 nM
same,TGI,CCRF-CEM leukemia,> 100000 nM
same,GI50,LOX IMVI melanoma,66.4 nM
same,TGI,LOX IMVI melanoma,2060 nM
same,GI50,HS 578T breast,321 nM
same,TGI,HS 578T breast,> 100000 nM
same,GI50,SR leukemia,156 nM
same,TGI,SR leukemia,> 100000 nM
same,GI50,SK-MEL-2 melanoma,1230 nM
same,TGI,SK-MEL-2 melanoma,18200 nM
same,GI50,EKVX NSCLC,567 nM
same,TGI,EKVX NSCLC,> 100000 nM
